Results on 1 compound are retold here after publication PMC10591299, “Targeting SHP2 with an Active Site Inhibitor Blocks Signaling and Breast Cancer Cell Phenotypes” (ACS Bio & Med Chem Au, 2023).

Where two headings read alike, the source gives them in different places.

Experiment [1] has as its system BT474 cells. As to the kind of experiment: Basal pAkt and pERK1/2 signaling by immunoblotting in BT474 cells. Format: cell-based. The note with it: Homo sapiens, BT-474. The method, then:
Since SHP2 is an essential mediator of mitogenic and cell survival signaling in breast cancer cells, we determined the effect of CNBCA treatment on activation of ERK1/2 and Akt in the HER2-positive BT474 and in the triple-negative MDA-MB468 cell lines. Cells growing in 2D culture were treated with varying concentrations of CNBCA, ranging from 0.250 to 2.0 μM, for 48 h, and total cell lysates were analyzed by immunoblotting (IB) with antibodies that recognize the activated forms of ERK1/2 (pERK1/2) and Akt (pAkt).
(A western blot detects proteins with antibodies after separation by electrophoresis.)

In experiment [2] the target is T1, SHP1 (Homo sapiens, UniProt P29350).
T1 construct: The GST fusion PTP domains of SHP1 and PTP1B were expressed and purified in a fashion similar to that of SHP2; GST; made in house
T1 sequence (P29350 244-515 limits assumed): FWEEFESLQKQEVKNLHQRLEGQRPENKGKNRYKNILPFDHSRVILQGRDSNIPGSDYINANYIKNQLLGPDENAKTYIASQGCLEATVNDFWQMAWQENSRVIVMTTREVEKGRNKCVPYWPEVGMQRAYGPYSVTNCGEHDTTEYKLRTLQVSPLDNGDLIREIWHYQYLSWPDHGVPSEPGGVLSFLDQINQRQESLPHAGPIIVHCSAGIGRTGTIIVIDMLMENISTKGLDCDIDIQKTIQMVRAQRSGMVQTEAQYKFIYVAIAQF
As to the kind of experiment: PTPase assay, GST-fusion PTP domain of SHP1, DiFMUP substrate. Format: biochemical. On the procedure: After completion of synthesis, both CNBCA and CNBBA were purified on silica gel, and purity was determined by HPLC. The purified compounds were then tested for their effect on the SHP2 enzyme activity and on the activity of the selected control PTPs (SHP1 and PTP1B) by the phosphotyrosyl phosphatase (PTPase) assay as described previously.[30],[31] First, the GST fusion of the PTP domains of SHP2, SHP1, and PTP1B were produced and purified as reported by us previously.[32] The reactions were performed in a buffer containing 10 mM Tris-HCl (pH 7.2), 100 mM NaCl, 1 mM EDTA, 1 mM dithiothreitol (DTT), and 0.01% Tween-20. […] The complete mixture was incubated at 37 °C for 20 min, and fluorescence intensity was measured by the Synergy 4 plate reader at the excitation and emission wavelengths of 360 and 460 nm, respectively. The half inhibitory concentration (IC50) value of each compound was calculated and plotted using Graphpad Prism software. […]
We used the PTPase assay described previously[30],[31] to evaluate the effect of the newly synthesized compounds on the enzymatic activity of SHP2, SHP1, and PTP1B. […] The mixtures were incubated at 37 °C for 20 min and transferred to 96 well plates, and the fluorescence intensity was measured by a Synergy 4 plate reader at the excitation and emission wavelengths of 360 and 460 nm, respectively. […]

Turning to `CCCCCCCCCOc1ccc(-c2ccc(C(=O)O)cc2)cc1CCCC(=O)O` [CNBCA, 3′-(3-carboxypropyl)-4′-(nonyloxy)-[1,1′-biphenyl]-4-carboxylic acid], the IC50 in experiment [1] (BT474, 48 h treatment, band density pAkt and pERK1/2, read-out: IC50 for SHP2 mediated Akt and ERK1/2 activation) is approximately 1000 nM; in experiment [1] (BT474 cells, read-out: concentration that provided a 50% inhibition of SHP2 mediated signaling), 500 nM; in experiment [2] (PTP domain, 1 nM enzyme, 35 μM DiFMUP), 34600 nM. Also, the “selectivity ratio SHP1 versus SHP2” value in experiment [2] (SHP2 IC50 as reference) turned out to be 39.77 fold.
